Values joined by “and” are separate entries in the source; they are usually repeats but may differ in a detail not shown here. Equal values may be shown once.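 96-well plates; 48 h exposure; 5 concentrations. Endpoints by linear interpolation between flanking doses. Not reached: highest tested concentration assigned. Here, GI50 denotes the concentration required for 50% inhibition of growth. TGI: total growth inhibition.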
Columns and labels:
Assay in all cases: NCI-60 cell line screen, 48 h
[1] = test system: RXF-631 renal
[2] = test system: XF 498 CNS
[3] = test system: SNB-78 CNS
[4] = test system: M19-MEL melanoma
[5] = test system: KM20L2 colon
[6] = test system: MDA-N
[7] = test system: HOP-18 NSCLC

SMILES | TGI [1] | TGI [2] | TGI [3] | TGI [4] | TGI [5] | TGI [6] | TGI [7] | GI50 [7] | GI50 [5] | GI50 [6]
COC(=O)c1cc2c(=O)n(C)c3ccccc3n2c1C(=O)OC | > 100 µM | 51.3 µM | > 100 µM | > 100 µM | > 100 µM | – | – | – | – | –
Oc1ccc(C=Nc2ccccc2O)cc1 | – | – | – | – | – | 33.8 µM | – | – | – | –
C=C[C@@H](C)[C@]1(C(=O)OC)CCCC12OCCO2 | – | > 100 µM | – | > 100 µM | > 100 µM | – | > 100 µM | – | – | –
Cc1cnc2ccc(C)c([N+](=O)[O-])c2c1NCCCN(C)C | – | > 100 µM | > 100 µM | > 100 µM | > 100 µM | – | – | – | – | –
N#C/C(=C\c1cc(O)cc(O)c1)C(N)=O | > 100 µM | > 100 µM | > 100 µM | > 100 µM | > 100 µM | – | – | – | – | –
COC(COC(N)=O)C1=C(N2CC2)C(=O)C(C)=C(N2CC2)C1=O (stereo unspecified) | – | 0.415 µM | 8.44 µM | 0.507 µM | 0.525 µM | 0.269 µM | 0.902 µM | – | – | –
CCc1cccc(C(C)C)c1NC(=O)C(=O)C1C(=O)Nc2ccccc2S1=O (stereo unspecified) | – | – | – | – | – | > 100 µM | – | – | – | –
CN(CCS(=O)(=O)N1C(=O)C2CCCN2C(=O)[C@@H]1Cc1ccccc1)C(=O)OCc1ccccc1 (stereo partly specified) | > 100 µM | – | > 100 µM | > 100 µM | > 100 µM | – | > 100 µM | – | – | –
COc1ccc(Cc2c3cc(O)c(=O)cc-3ccn2C)cc1 | > 100 µM | > 100 µM | > 100 µM | 75 µM | > 100 µM | – | > 100 µM | – | – | –
COC(=O)[C@@H]1c2cc3c(c(O)c2[C@@H](OC2OC(C)C(OC)C(C)(OC)C2OC)C[C@]1(C)O)C(=O)c1c(O)cc2c(c1C3=O)O[C@H]1O[C@]2(C)[C@H](O)[C@@H](N(C)C)[C@@H]1O (stereo partly specified) | – | – | 0.0762 µM | 0.0156 µM and 0.0185 µM | – | 0.179 µM | – | 0.0404 µM | 0.0127 µM | –
O=C(O)c1cc(-c2ccc3cc4c(cc3c2)OCO4)nc2ccccc12 | – | – | – | – | – | > 100 µM | – | – | – | –
O=C1[C@H]2ON(c3ccccc3)C(c3ccc([N+](=O)[O-])cc3)[C@H]2C(=O)N1c1ccc(Cc2ccc(N3C(=O)[C@@H]4ON(c5ccccc5)C(c5ccc([N+](=O)[O-])cc5)[C@@H]4C3=O)cc2)cc1 (stereo partly specified) | > 100 µM | – | > 100 µM | > 100 µM | > 100 µM | – | > 100 µM | – | – | –
CC1(C)OC2C(CCP(=O)(O)O)OC(c3nc(C(N)=O)cs3)C2O1 (stereo unspecified) | > 100 µM | – | – | > 100 µM | > 100 µM | – | > 100 µM | – | – | –
Cc1nc2sccn2c1C(=O)NN | > 100 µM | > 100 µM | – | > 100 µM | > 100 µM | – | > 100 µM | – | – | –
CC(C)(C)C1=CC(=C(P(=O)(O)O)P(=O)(O)O)C=C(C(C)(C)C)C1=O | > 50 µM | – | > 50 µM | > 50 µM | > 50 µM | – | > 50 µM | – | – | –
COc1ccc(C(c2ccccc2)(c2ccc(OC)cc2)N2C(=O)NC3C(CCCCC(=O)NCCCCCCOP(OCCC#N)N(C(C)C)C(C)C)SCC32)cc1 (stereo unspecified) | 17.7 µM | 30.8 µM | 34.6 µM | 33.1 µM | 30.8 µM | – | 24.4 µM | – | – | –
CC(C)N(C(=O)C12C3C4C5(C#N)C3C1(C#N)C5C42C#N)C(C)C (stereo unspecified) | – | > 100 µM | > 100 µM | > 100 µM | > 100 µM | – | > 100 µM | – | – | –
O=C(CCC(=O)Nc1ccc(Cl)c(Cl)c1)Cc1nc2ccccc2o1 | > 100 µM | – | > 100 µM | > 100 µM | > 100 µM | – | > 100 µM | – | – | –
CC(=O)Nc1ccc(/C=C/C(=O)c2sc(-c3cccnc3)nc2C)cc1 | – | – | > 100 µM | > 100 µM | > 100 µM | – | > 100 µM | – | – | –
Cc1nc([N+](=O)[O-])cn1-c1nc2ccccn2c1[N+](=O)[O-] | – | – | – | – | – | > 100 µM | – | – | – | –
O=C(C(=O)c1cc2ccccc2[nH]1)c1cc2ccccc2[nH]1 | > 347 µM | 336 µM | > 347 µM | > 347 µM | > 347 µM | – | – | – | – | –
OCC1C(OCc2ccccc2)C(OCc2ccccc2)C(OCc2ccccc2)CN1Cc1ccccc1 (stereo unspecified) | – | – | – | – | – | > 100 µM | – | – | – | –

SMILES | TGI [1] | TGI [2] | TGI [3] | TGI [4] | TGI [5] | TGI [6] | TGI [7] | GI50 [7] | GI50 [5] | GI50 [6]
CC1=N/C(=C/c2ccc3c(c2)OCO3)C(=O)O1 | > 100 µM | > 100 µM | > 100 µM | > 100 µM | > 100 µM | – | > 100 µM | – | – | –
C/C=C(\C)c1cc(=O)c2c(C)cc3c(c2o1)C(=O)c1c(O)c(C2CC(C)(N(C)C)C(OC(C)=O)C(C)O2)cc(C2CC(N(C)C)C(O)C(C)O2)c1C3=O (stereo unspecified) | – | – | – | – | – | 4.83 µM | – | – | – | –
NNC(=O)C(=O)N/N=C(\CCCC(=O)Nc1ccc(Cl)cc1)CC(=O)c1ccc(F)cc1 | > 100 µM | > 100 µM | > 100 µM | > 100 µM | > 100 µM | – | > 100 µM | – | – | –
CCc1nc(N)nc(N)c1-c1ccc(Cl)c([N+](=O)[O-])c1 | – | – | – | – | – | > 100 µM | – | – | – | –
C=CCC1(CN(C)C)CC/C(=C\c2ccc(OC)cc2)C1=O (stereo unspecified) | 49 µM | – | > 100 µM | > 100 µM | > 100 µM | – | > 100 µM | – | – | –
CCOC(OC(C)=O)[C@@H]1C=C[C@H](C)N(c2ccc([N+](=O)[O-])cc2)O1 (stereo partly specified) | 25.7 µM | 32.6 µM | 60.4 µM | 5.3 µM | 34.3 µM | – | 17.8 µM | – | – | –
O=C(O)CSc1n[nH]c(=O)[nH]c1=O | – | – | – | – | – | > 100 µM | – | – | – | –
CCOC(=O)Cc1c(C)c2cc(C(=O)c3ccccc3)c(O)cc2oc1=O | – | – | – | – | – | > 100 µM | – | – | – | –
O=C(/C=C\c1ccccc1O)c1ccc(O)cc1O | > 100 µM | – | > 100 µM | > 100 µM | > 100 µM | – | > 100 µM | – | – | –
Cc1ccc(C)c(N2C(=O)C(=O)C(c3nc4ccccc4s3)/C(=N/N)C2=O)c1 (stereo unspecified) | – | > 100 µM | > 100 µM | > 52.7 µM | > 100 µM | – | > 100 µM | – | – | –
CCN(CC)CCCNc1nccc2c(C)c3c(cc12)c1cnccc1n3C | – | 0.923 µM | 2.76 µM | 2.67 µM | 1.93 µM | – | – | – | – | –
Cc1c(-c2cnccn2)ssc1=S | – | – | – | – | – | > 100 µM | – | – | – | –
CCC[C@H]1O[C@@H]2CC(=O)O[C@@H]2C2=C1C(=O)C=CC2=O | – | – | 45.7 µM | 41.7 µM | 43.8 µM | – | 31.9 µM | – | – | –
COC1CCC(OS(C)(=O)=O)C(CO)O1 (stereo unspecified) | – | > 100 µM | – | > 100 µM | > 100 µM | – | – | – | – | –
COc1ccc(Nc2nc3cc(N)cc(N)c3nc2-c2ccccc2)cc1 | – | – | – | – | – | 36 µM | – | – | – | 21.6 µM
Cc1c(C)c2ccc3oc4ccccc4c3c2oc1=O | > 100 µM | – | > 100 µM | > 100 µM | > 100 µM | – | > 100 µM | – | – | –
O=C(O)CCNCC(=O)O | – | – | – | – | – | > 100 µM | – | – | – | –
C/C(=N\N=C(N)N)C(CN1CCCCC1)C(c1ccccc1)c1c(O)c2ccccc2oc1=O (stereo unspecified) | > 100 µM | > 100 µM | – | > 100 µM | > 100 µM | – | – | – | – | –
CN(Cc1ccccc1)Cn1ccnc1 | – | – | – | – | – | > 100 µM | – | – | – | –
COc1cc2cc(OC(C)=O)c3cc4c(cc3c2c(OC)c1OC)OCO4 | > 100 µM | > 100 µM | > 100 µM | > 100 µM | > 100 µM | – | > 100 µM | – | – | –
O=C1C=C(Nc2ccc(Cl)cc2Cl)c2ccccc2C1=O | > 100 µM | – | > 100 µM | 26.3 µM | > 100 µM | – | – | – | – | –

— PubChem BioAssay (NCI)
